The text below walks through data of publication PMC11940309, “Endocrine-Disrupting Activities of Flavones on Steroid Receptors: Structural Requirements and Synthesis of Novel Flavone with Improved Estrogenic Activity” (Biomedicines, 2025).

Molecules are shown by their SMILES. Read-outs that look alike come from different tables or passages of the source.

The test addresses T1, glucocorticoid receptor (GR) (Rattus norvegicus, UniProt P06536).
T1 construct: host or cells: T47D (A1-2)
T1 sequence (P06536 1-795): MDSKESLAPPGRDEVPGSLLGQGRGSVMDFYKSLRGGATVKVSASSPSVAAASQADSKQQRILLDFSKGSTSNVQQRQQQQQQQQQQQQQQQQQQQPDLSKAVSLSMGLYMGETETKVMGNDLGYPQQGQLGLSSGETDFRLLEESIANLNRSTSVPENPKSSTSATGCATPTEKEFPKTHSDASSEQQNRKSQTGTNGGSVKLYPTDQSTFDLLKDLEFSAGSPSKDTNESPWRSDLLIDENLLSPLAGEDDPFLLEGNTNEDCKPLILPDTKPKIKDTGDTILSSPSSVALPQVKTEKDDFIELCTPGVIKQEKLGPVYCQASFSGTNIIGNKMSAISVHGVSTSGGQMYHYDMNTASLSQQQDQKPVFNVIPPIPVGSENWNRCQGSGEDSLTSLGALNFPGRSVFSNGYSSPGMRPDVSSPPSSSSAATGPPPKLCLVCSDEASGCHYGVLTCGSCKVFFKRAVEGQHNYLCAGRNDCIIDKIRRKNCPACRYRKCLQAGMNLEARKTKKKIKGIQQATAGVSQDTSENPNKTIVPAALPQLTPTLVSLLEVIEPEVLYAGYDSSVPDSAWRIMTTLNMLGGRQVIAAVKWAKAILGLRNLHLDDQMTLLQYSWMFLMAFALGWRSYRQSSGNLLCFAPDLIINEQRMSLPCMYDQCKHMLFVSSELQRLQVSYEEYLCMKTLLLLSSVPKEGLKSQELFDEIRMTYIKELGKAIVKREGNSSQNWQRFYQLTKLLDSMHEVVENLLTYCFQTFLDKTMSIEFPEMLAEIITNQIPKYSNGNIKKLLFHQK
The test is described as follows: GR-mediated induction of transcription by dexamethasone in T47D (A1-2) cells (luciferase reporter and endogenous alkaline phosphatase). The conditions noted are these: dexamethasone 1.0 nM; for inhibition at 4 µM / inhibition at 8 µM: T47D. It counts as cell-based, human. From the text: The engineered T47D breast cancer cell lines employed for the assessment of flavonoid activity on glucocorticoid receptor (GR) and progesterone receptor (PR) signaling permitted the facile quantitation transcription of both an endogenous gene and a stably integrated reporter gene. […] The T47D K5pLuc cell line responds to progestins via induction of a stably integrated cytokeratin 5-luciferase reporter gene. […] For assessment of the effect of the test compounds on androgen receptor (AR) signaling, we used the HeLa13 cell line engineered to stably express human AR and a PSA-luciferase reporter gene containing a 4× multimerized PSA upstream enhancer ARE1 linked to the E4 TATA box and luciferase gene.
For assessment of the effect of flavones on glucocorticoid receptors, T47D (A1-2) cells were maintained in Minimal Essential Medium, 10% Fetal Bovine Serum (FBS), 0.2 mg/mL G418, penicillin (100 U/mL), and streptomycin (100 μg/mL). For experiments, medium was removed, and cultures rinsed with Phosphate-Buffered Saline (PBS) + 1.0 mM EDTA (PBSE), detached with trypsin, pelleted, and resuspended in medium to a concentration of 500,000 cells/mL. Aliquots of cell suspension, 100 microliters/well, were transferred into a 96-well, white, flat-bottomed plate and allowed to attach for 24 h. The following day, each well was treated with a 50 microliter aliquot of a test compound diluted in medium. Controls received medium containing DMSO diluted in the same way. For hormone treatment, dexamethasone was diluted in medium and added as 50 microliter aliquots so that the final volume in each well was 200 microliters. The final concentration of dexamethasone was 1.0 nM. Controls received medium without hormone. Hormone treatment was for 20 h at which time cells were harvested for assay of alkaline phosphatase and luciferase.
For all cell lines, cell harvesting and the luminescence assay for alkaline phosphatase and/or luciferase were performed as previously described in detail. Each condition was performed in quadruplicate. […] Percent inhibition is 100 minus the percent induction.

The mark [1] stands for this setting: 4 µM, AP (alkaline phosphatase), read-out: % Inhibition of GR Induction.
Setting [2] is: 4 µM, LUC (luciferase), read-out: % Inhibition of GR Induction.
The mark [3] stands for this setting: 8 µM, AP (alkaline phosphatase), read-out: % Inhibition of GR Induction.
Setting [4] is: 8 µM, LUC (luciferase), read-out: % Inhibition of GR Induction.
The mark [5] stands for this setting: read-out: % Inhibition of GR Induction, 4 µM, AP (alkaline phosphatase).
Setting [6] is: read-out: % Inhibition of GR Induction, 4 µM, LUC (luciferase).
Where [7] appears, read: read-out: % Inhibition of GR Induction, 8 µM, AP (alkaline phosphatase).
Setting [8] is: read-out: % Inhibition of GR Induction, 8 µM, LUC (luciferase).

With `O=c1cc(-c2ccc(O)c(O)c2)oc2ccccc12` [3′,4′-dihydroxyflavone], the inhibition at 4 µM under setting [1] is -15% and the inhibition at 4 µM under setting [2] is -2%. Moreover, the inhibition at 8 µM under setting [3] worked out at 38% and the inhibition at 8 µM under setting [4] was -6%.
For the molecule `O=c1cc(-c2ccc(O)cc2)oc2ccccc12` [4′-hydroxyflavone], the inhibition at 4 µM under setting [1] was determined as 49% and the inhibition at 4 µM under setting [2] was -43%. Also, the inhibition at 8 µM reads like this: under setting [3], 49%; under setting [4], -49%.
`O=c1cc(-c2ccc(O)c(O)c2)oc2cccc(O)c12` [5,3′,4′-trihydroxyflavone]: the inhibition at 4 µM by setting is: under setting [5], 27%; under setting [6], -16%. Further, the inhibition at 8 µM is 40% under setting [7] and -24% under setting [8].
Consider `O=c1cc(-c2ccc(O)cc2)oc2cccc(O)c12` [5,4′-dihydroxyflavone], for which the inhibition at 4 µM by setting is: under setting [1], 34%; under setting [2], 13%. For the same molecule, the inhibition at 8 µM is, setting by setting: under setting [3], 33%; under setting [4], 13%.
`O=c1cc(-c2cc(O)c(O)c(O)c2)oc2cc(O)cc(O)c12` [5,7,3′4′,5′-pentahydroxyflavone]: the “% Inhibition of GR Induction” value by setting is: (4 µM, AP (alkaline phosphatase)) −19%; (4 µM, LUC (luciferase)) 5%; (8 µM, AP (alkaline phosphatase)) 46%; (8 µM, LUC (luciferase)) −25%.
As to `O=C1CC(c2ccc(O)c(O)c2)Oc2cc(O)cc(O)c21` (centres unmarked) [5,7,3′,4′-tetrahydroxyflavanone], the inhibition at 4 µM under setting [5] worked out at 4% and the inhibition at 4 µM under setting [6] turned out to be 5%. Further, the inhibition at 8 µM was -4% under setting [7] and 18% under setting [8].
`O=c1cc(-c2ccc(O)c(O)c2)oc2cc(O)cc(O)c12` [5,7,3′,4′-tetrahydroxyflavone]: the inhibition at 4 µM is, setting by setting: under setting [1], 33%; under setting [2], -8%. Moreover, the inhibition at 8 µM runs as follows: under setting [3], 55%; under setting [4], -3%.
Regarding `COc1ccc([C@@H]2CC(=O)c3c(O)cc(O)cc3O2)cc1O` [5,7,3′-triOH, 4′methoxyflavanone], the inhibition at 4 µM under setting [1] turned out to be 1%. The inhibition at 8 µM under setting [3] stood at 51% and the inhibition at 8 µM under setting [4] was determined as 15%.
With `O=C1CC(c2ccc(O)cc2)Oc2cc(O)cc(O)c21` (centres unmarked) [5,7,4′-trihydroxyflavanone], the inhibition at 4 µM is 8% under setting [1] and 15% under setting [2]. Moreover, the inhibition at 8 µM is, setting by setting: under setting [3], 7%; under setting [4], 19%.
Turning to `O=c1c(-c2ccc(O)cc2)coc2cc(O)cc(O)c12` [5,7,4′-trihydroxyisoflavone], the inhibition at 4 µM under setting [1] was found to be 22% and the inhibition at 4 µM under setting [2] was -7%.
Turning to `O=c1cc(-c2ccccc2)oc2cc(O)cc(O)c12` [5,7-dihydroxyflavone], the inhibition at 4 µM by setting is: under setting [1], 22%; under setting [2], 0%. The inhibition at 8 µM reads like this: under setting [3], 38%; under setting [4], -6%.
Consider `O=c1cc(-c2ccc(O)cc2)oc2ccc(O)cc12` [6,4′-dihydroxyflavone], for which the inhibition at 4 µM was 26% under setting [1] and -44% under setting [2]. For the same molecule, the inhibition at 8 µM by setting is: under setting [3], 39%; under setting [4], -82%.
Consider `O=c1cc(-c2ccc(O)c(O)c2)oc2cc(O)ccc12` [7,3′,4′-trihydroxyflavone], for which the inhibition at 4 µM under setting [1] worked out at 21% and the inhibition at 4 µM under setting [2] was -117%. In addition, the inhibition at 8 µM under setting [3] was determined as 36% and the inhibition at 8 µM under setting [4] is -87%.
Turning to `O=c1cc(-c2ccc(O)cc2)oc2cc(O)ccc12` [7,4′-dihydroxyflavone], the inhibition at 4 µM was 47% under setting [5] and -92% under setting [6]. Moreover, the inhibition at 8 µM is 64% under setting [7] and -38% under setting [8].
For the molecule `O=c1c(-c2ccc(O)cc2)coc2cc(O)ccc12` [7,4′-dihydroxyisoflavone], the inhibition at 8 µM by setting is: under setting [3], 5%; under setting [4], -52%.
Consider `O=c1cc(-c2ccccc2)oc2ccccc12` [flavone], for which the inhibition at 4 µM is, setting by setting: under setting [1], 13%; under setting [2], 4%. Also, the inhibition at 8 µM is, setting by setting: under setting [3], 34%; under setting [4], -24%.
